From ChEMBL document CHEMBL1131391, “Identification and characterization of m4 selective muscarinic antagonists” (Bioorg Med Chem Lett, 1998)

Experiments:
[1] = molecular target: T1, Muscarinic acetylcholine receptor M5 (Homo sapiens, UniProt P08912); test: Evaluated for its binding affinity at human muscarinic receptor m5 by the displacement of [3H]NMS binding using membranes from transfected chinese hamster ovarian cell
T1 sequence (P08912 whole entry): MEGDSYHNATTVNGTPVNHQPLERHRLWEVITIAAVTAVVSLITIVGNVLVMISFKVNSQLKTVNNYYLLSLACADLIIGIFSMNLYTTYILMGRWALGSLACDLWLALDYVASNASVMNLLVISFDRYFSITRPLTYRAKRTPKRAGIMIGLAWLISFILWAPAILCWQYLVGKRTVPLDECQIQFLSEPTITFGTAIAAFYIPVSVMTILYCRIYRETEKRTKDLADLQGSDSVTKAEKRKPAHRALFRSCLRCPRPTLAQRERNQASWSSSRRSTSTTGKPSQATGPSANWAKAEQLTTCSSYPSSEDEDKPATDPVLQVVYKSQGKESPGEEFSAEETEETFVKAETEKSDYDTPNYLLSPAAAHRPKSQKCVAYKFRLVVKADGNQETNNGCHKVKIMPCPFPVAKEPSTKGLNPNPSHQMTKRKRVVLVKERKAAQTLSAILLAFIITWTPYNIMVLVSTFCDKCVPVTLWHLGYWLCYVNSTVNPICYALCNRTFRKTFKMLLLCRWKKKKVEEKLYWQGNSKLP

[2] = molecular target: T2, Muscarinic acetylcholine receptor M3 (Homo sapiens, UniProt P20309); test: Evaluated for its binding affinity at human muscarinic receptor m3 by the displacement of [3H]NMS binding using membranes from transfected chinese hamster ovarian cell; assay type: cell-based
Target sequence in this assay (P20309 whole entry): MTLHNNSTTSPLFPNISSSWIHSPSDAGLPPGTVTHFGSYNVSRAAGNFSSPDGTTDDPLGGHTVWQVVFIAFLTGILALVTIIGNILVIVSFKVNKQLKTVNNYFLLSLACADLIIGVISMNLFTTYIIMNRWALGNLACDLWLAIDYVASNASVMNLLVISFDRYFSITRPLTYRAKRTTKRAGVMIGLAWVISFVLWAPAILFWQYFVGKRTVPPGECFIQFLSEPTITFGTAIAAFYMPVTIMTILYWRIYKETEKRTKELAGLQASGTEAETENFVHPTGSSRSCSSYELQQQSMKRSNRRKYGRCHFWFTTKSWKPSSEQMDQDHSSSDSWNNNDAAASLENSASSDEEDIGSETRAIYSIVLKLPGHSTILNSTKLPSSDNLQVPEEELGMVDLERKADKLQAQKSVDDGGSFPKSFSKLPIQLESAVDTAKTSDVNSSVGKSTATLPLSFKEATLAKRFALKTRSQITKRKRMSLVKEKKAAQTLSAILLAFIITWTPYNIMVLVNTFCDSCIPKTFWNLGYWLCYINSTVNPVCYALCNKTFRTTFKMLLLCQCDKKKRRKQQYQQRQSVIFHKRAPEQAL

[3] = molecular target: T3, Muscarinic acetylcholine receptor M1 (Homo sapiens, UniProt P11229); test: Evaluated for its binding affinity at human muscarinic receptor m1 by displacement of [3H]NMS binding using membranes in transfected chinese hamster ovarian cell; assay type: cell-based
T3 sequence (P11229 whole entry): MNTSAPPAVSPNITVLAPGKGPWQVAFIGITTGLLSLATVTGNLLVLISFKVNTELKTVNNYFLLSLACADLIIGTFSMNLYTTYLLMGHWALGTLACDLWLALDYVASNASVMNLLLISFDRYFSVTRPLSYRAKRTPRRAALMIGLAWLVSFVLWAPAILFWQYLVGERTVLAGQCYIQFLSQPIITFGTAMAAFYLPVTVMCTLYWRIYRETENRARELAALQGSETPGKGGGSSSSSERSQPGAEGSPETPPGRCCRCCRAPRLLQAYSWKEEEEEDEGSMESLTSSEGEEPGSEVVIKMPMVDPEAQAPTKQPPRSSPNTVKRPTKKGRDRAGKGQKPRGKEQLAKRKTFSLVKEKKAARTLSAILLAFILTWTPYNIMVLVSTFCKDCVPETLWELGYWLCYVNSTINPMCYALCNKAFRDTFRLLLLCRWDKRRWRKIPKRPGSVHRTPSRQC

[4] = molecular target: T4, Muscarinic acetylcholine receptor M4 (Homo sapiens, UniProt P08173); test: Evaluated for its binding affinity at human muscarinic receptor m4 by the displacement of [3H]NMS binding using membranes from transfected chinese hamster ovarian cell
T4 sequence (P08173 whole entry): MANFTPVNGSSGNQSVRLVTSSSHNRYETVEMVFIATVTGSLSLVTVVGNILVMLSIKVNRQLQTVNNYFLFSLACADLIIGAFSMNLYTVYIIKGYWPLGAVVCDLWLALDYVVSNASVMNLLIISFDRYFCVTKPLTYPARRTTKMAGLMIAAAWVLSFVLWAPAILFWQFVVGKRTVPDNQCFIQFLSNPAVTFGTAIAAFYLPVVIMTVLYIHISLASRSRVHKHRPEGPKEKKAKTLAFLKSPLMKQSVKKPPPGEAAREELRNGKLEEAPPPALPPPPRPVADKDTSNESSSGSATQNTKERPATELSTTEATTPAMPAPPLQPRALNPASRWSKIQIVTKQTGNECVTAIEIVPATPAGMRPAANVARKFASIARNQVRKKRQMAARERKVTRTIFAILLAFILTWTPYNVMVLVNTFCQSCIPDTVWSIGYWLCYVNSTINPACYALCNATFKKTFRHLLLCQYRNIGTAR

[5] = molecular target: T5, Muscarinic acetylcholine receptor M2 (Homo sapiens, UniProt P08172); test: Evaluated for its binding affinity at human muscarinic receptor m2 by displacement of [3H]NMS binding using membranes from transfected chinese hamster ovarian cell
T5 sequence (P08172 whole entry): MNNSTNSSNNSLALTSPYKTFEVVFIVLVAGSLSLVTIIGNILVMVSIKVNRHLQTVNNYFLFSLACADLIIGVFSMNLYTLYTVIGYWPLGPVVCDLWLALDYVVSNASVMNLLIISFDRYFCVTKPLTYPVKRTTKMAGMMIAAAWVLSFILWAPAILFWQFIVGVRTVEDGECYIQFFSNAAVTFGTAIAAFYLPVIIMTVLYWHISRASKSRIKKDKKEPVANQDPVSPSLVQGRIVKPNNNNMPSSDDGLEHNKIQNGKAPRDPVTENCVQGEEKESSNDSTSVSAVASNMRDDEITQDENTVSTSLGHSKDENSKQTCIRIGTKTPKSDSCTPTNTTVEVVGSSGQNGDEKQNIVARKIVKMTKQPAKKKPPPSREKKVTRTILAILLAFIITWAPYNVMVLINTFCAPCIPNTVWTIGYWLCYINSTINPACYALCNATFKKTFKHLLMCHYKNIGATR

[6] = molecular target: T6, Muscarinic acetylcholine receptor M2 (Homo sapiens) (UniProt P08172); test: Compound was evaluated for its binding affinity at human muscarinic receptor m2 by displacement of [3H]NMS radioligand using membranes from transfected chinese hamster ovarian cell at 100 nM concentration
T6 sequence (whole entry): T5 sequence (P08172 whole entry)

[7] = molecular target: T7, Muscarinic acetylcholine receptor M4 (Homo sapiens) (UniProt P08173); test: Compound was evaluated for its binding affinity at human muscarinic receptor Hm4 by the displacement of [3H]NMS radioligand using membranes from transfected chinese hamster ovarian cell at 100 nM concentration
T7 sequence (whole entry): T4 sequence (P08173 whole entry)

[8] = molecular target: T6, Muscarinic acetylcholine receptor M2 (Homo sapiens); test: Compound was evaluated for its binding affinity at human muscarinic receptor m2 by the displacement of [3H]NMS radioligand using membranes from transfected chinese hamster ovarian cell at 1000 nM concentration
[9] = molecular target: T2, Muscarinic acetylcholine receptor M3; test: Compound was evaluated for its binding affinity at human muscarinic receptor Hm3 by the displacement of [3H]NMS radioligand using membranes from transfected chinese hamster ovarian cell at 1000 nM concentration
Target sequence in this assay (P20309 whole entry, looked up): as the sequence (P20309 whole entry) above

[10] = molecular target: T7, Muscarinic acetylcholine receptor M4 (Homo sapiens); test: Compound was evaluated for its binding affinity at human muscarinic receptor Hm4 by the displacement of [3H]-NMS radioligand using membranes from transfected chinese hamster ovarian cell at 1000 nM concentration
[11] = molecular target: T2, Muscarinic acetylcholine receptor M3; test: Compound was evaluated for its binding affinity at human muscarinic receptor Hm3 by the displacement of [3H]NMS radioligand using membranes from transfected chinese hamster ovarian cell at 100 nM concentration
Target sequence in this assay (P20309 whole entry, looked up): as the sequence (P20309 whole entry) above

[12] = molecular target: T8, Muscarinic acetylcholine receptor M5 (Homo sapiens) (UniProt P08912); test: Compound was evaluated for its binding affinity at human muscarinic receptor Hm5 by the displacement of [3H]NMS radioligand using membranes from transfected chinese hamster ovarian cell at 100 nM concentration
T8 sequence (whole entry): T1 sequence (P08912 whole entry)

[13] = molecular target: T8, Muscarinic acetylcholine receptor M5 (Homo sapiens); test: Compound was evaluated for its binding affinity at human muscarinic receptor Hm5 by the displacement of [3H]-NMS radioligand using membranes from transfected chinese hamster ovarian cell at 1000 nM concentration

| Compound | IC50 [1] | IC50 [2] | IC50 [3] | IC50 [4] | IC50 [5] | inhibition [6] | inhibition [7] | inhibition [8] | inhibition [9] | inhibition [10] | inhibition [11] | inhibition [12] | inhibition [13] |
| --- | --- | --- | --- | --- | --- | --- | --- | --- | --- | --- | --- | --- | --- |
| CCOC(=O)c1c(C)[nH]c2ccc3c(c12)CN1CCc2cc(OCC)ccc2C1O3 (stereo unspecified) | 8.62 µM | 2.63 µM | 4.25 µM | 1.62 µM | 2.56 µM |  |  |  |  |  |  |  |  |
| CC1OC(=O)[C@H]2C[C@H]3CCCC[C@@H]3[C@@H](/C=C/C3CCC[C@H](C)N3C)[C@@H]12 (single isomer, unassigned) [HIMBACINE] | 1.02 µM |  | 0.548 µM |  | 0.0175 µM |  |  |  |  |  |  |  |  |
| CCOC(=O)c1c(C)[nH]c2ccc3c(c12)CN1CCc2cc(OC)c(OC)cc2C1O3 (stereo unspecified) | 26.6 µM | 1.62 µM | 12.9 µM | 0.301 µM | 9.34 µM |  |  |  |  |  |  |  |  |
| CCOC(=O)c1c[nH]c2ccc3c(c12)CN1CCc2cc(OC)c(OC)cc2C1O3 (stereo unspecified) | 47.4 µM | 10.3 µM | 8.22 µM | 1.5 µM | 7.7 µM |  |  |  |  |  |  |  |  |
| CCOC(=O)c1c(C)[nH]c2ccc3c(c12)C[N+]1(C)CCc2cc(OC)ccc2C1O3 (stereo unspecified) |  |  |  |  |  | 14.7% | 0% | 29.9% | 0% | 19.9% | 0% | 0.9% | 1.6% |
| COC(=O)c1c(C)[nH]c2ccc3c(c12)CN1CCc2ccccc2C1O3 (stereo unspecified) | 5.76 µM | 12.6 µM | 7.12 µM | 9.93 µM | 4.66 µM |  |  |  |  |  |  |  |  |
| CCOC(=O)c1c(C)[nH]c2ccc3c(c12)CN1CCc2ccc(OC)cc2C1O3 (stereo unspecified) | 8.21 µM | 10.8 µM | 9.02 µM | 6.03 µM | 3 µM |  |  |  |  |  |  |  |  |
| COc1cc2c(cc1OC)C1Oc3ccc4[nH]c(C)cc4c3CN1CC2 (stereo unspecified) | 43.5 µM | 32.6 µM | 32.7 µM | 4.74 µM | 14.7 µM |  |  |  |  |  |  |  |  |
| CCOC(=O)c1c[nH]c2ccc3c(c12)CN1CCc2cc(OC)ccc2C1O3 (stereo unspecified) | 6 µM | 3.7 µM | 5.62 µM | 0.334 µM | 4.56 µM |  |  |  |  |  |  |  |  |
| COc1ccc2c(c1)CCN1Cc3c(ccc4[nH]c(C)cc34)OC21 (stereo unspecified) | 18 µM | 15.3 µM | 10.8 µM | 9.74 µM | 1.15 µM |  |  |  |  |  |  |  |  |
| CCOC(=O)c1c(C)[nH]c2ccc3c(c12)CN1CCc2cc(OC)ccc2C1O3 (stereo unspecified) | 7.41 µM | 0.95 µM | 6.56 µM | 0.0907 µM | 3.44 µM |  |  |  |  |  |  |  |  |

The remaining compounds from weak to strong by IC50 [1], led by results:

| IC50 [1] | IC50 [2] | IC50 [3] | IC50 [4] | IC50 [5] | inhibition [6] | inhibition [7] | inhibition [8] | inhibition [9] | inhibition [10] | inhibition [11] | inhibition [12] | inhibition [13] | Compound |
| --- | --- | --- | --- | --- | --- | --- | --- | --- | --- | --- | --- | --- | --- |
| 4.74 µM | 2.82 µM | 4.06 µM | 2.05 µM | 2.64 µM |  |  |  |  |  |  |  |  | COc1ccc2c(c1)CCN1Cc3c(ccc4[nH]c(C)c(C(=O)OC(C)C)c34)OC21 (stereo unspecified) |
| 4.19 µM | 5.49 µM | 5.01 µM | 3.71 µM | 2.68 µM |  |  |  |  |  |  |  |  | CCOC(=O)c1c(C)[nH]c2ccc3c(c12)CN1CCc2ccccc2C1O3 (stereo unspecified) |
| 4.09 µM | 3.39 µM | 3.79 µM | 0.501 µM | 13.1 µM |  |  |  |  |  |  |  |  | COC(=O)c1c(C)[nH]c2ccc3c(c12)CN1CCc2cc(OC)ccc2C1O3 (stereo unspecified) |
| 3.88 µM | 2.72 µM | 3.28 µM | 0.465 µM | 9.52 µM |  |  |  |  |  |  |  |  | CCOC(=O)c1c(C)[nH]c2ccc3c(c12)CN1CCc2cc(C)ccc2C1O3 (stereo unspecified) |
| 3.81 µM | 1.48 µM | 1.96 µM | 0.36 µM | 1.91 µM |  |  |  |  |  |  |  |  | CCCOC(=O)c1c(C)[nH]c2ccc3c(c12)CN1CCc2cc(OC)ccc2C1O3 (stereo unspecified) |
| 2.03 µM | 3.07 µM | 1.96 µM | 2.63 µM | 1.65 µM |  |  |  |  |  |  |  |  | CCOC(=O)c1c(C)[nH]c2ccc3c(c12)CN1CCc2cc(Oc4ccccc4)ccc2C1O3 (stereo unspecified) |
| 1.73 µM | 2.83 µM | 6.11 µM | 1.47 µM | < 1 µM |  |  |  |  |  |  |  |  | CCOC(=O)c1c(C)[nH]c2ccc3c(c12)CN1CCc2cccc(C)c2C1O3 (stereo unspecified) |
